The source of these data is patent US9346782B2, “Alkyl linked quinolinyl modulators of RORγt” (Janssen Pharmaceutica NV, priority 2013, dated 2016).

One experiment deals with human RORγt LBD (Homo sapiens (Human), UniProt P51449). As to the kind of experiment: RORγt Reporter Assay. The experiment is classed as cell-based. The settings on record: for IC50 / RORγt reporter Assay, % inhibition @ 6 μM: HEK293T cells; for inhibition at 6 µM: HEK-293T, read-out: RORγt reporter Assay, % inhibition @ 6 μM, HEK293T cells, 6 μM. An excerpt: A reporter assay was used to test functional activity of RORγt modulatory compounds on transcriptional activation driven by the RORγt LBD. Cells used in the assay were co-transfected with two constructs. The first construct, pBIND-RORγt LBD, contained the wild type human RORγt LBD fused to the DNA binding domain of the GAL4 protein. The second construct, pGL4.31 (Promega Cat no. C935A), contained multiple GAL4 responsive DNA elements upstream of firefly luciferase. […] The mutant construct was called pBIND-RORγt-AF2.
Sequence of human RORγt LBD (P51449 258-518): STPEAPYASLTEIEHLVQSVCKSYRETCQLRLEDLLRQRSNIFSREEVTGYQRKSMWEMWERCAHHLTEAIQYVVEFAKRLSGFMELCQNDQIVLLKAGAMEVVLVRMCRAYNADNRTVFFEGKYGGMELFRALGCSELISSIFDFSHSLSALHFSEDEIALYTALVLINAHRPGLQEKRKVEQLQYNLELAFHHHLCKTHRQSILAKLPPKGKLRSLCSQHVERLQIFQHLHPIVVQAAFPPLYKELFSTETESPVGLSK
The pBIND vector contains the GAL4 DNA Binding Domain (GAL4 DBD) and the renilla luciferase gene under control of the SV40 promoter. Renilla luciferase expression serves as a control for transfection efficiency and cell viability.
The reporter assay was performed by transiently transfecting HEK293T cells with 5 μg of pBIND-RORγt LBD or pBIND-RORγt LBD-AF2 and 5 μg pGL4.31 (Promega Cat no. C935A) using Fugene 6 (Invitrogen Cat no. E2691) at a 1:6 ratio of DNA:Fugene 6 in a T-75 flask in which cells were at least 80% confluent. Twenty four hours after bulk transfection, cells were plated into 96-well plates at 50,000 cells/well in phenol-red free DMEM containing 5% Lipid Reduced FCS and Pen/Strep. Six hours after plating, cells were treated with compounds for 24 hours. Media was removed and cells were lysed with 50 μL 1× Glo Lysis Buffer (Promega). Dual Glo Luciferase Reagent (50 μL/well) was then added and firefly luciferase luminescence was read on an Envision after a ten minute incubation. Finally, Stop and Glo reagent (50 μL/well) was added and renilla luciferase luminescence was read on an Envision after a ten minute incubation. To calculate the effect of compounds on RORγt activity, the ratio of firefly to renilla luciferase was determined and plotted against compound concentration. Agonist compounds increase RORγt-driven luciferase expression, and antagonist or inverse agonist compounds decrease luciferase expression.
A general note: Reporter assays use an easily measured gene product as a stand-in for the process of interest.

Experiment [1] has as its system IL-17 production by CD4 T cells. As to the kind of experiment: Human Th17 Assay. It is filed as cell-based. To be noted: 3 days. From the text: The human Th17 assay tests the effect of RORγt modulatory compounds on IL-17 production by CD4 T cells under conditions which favor Th17 differentiation. Total CD4^+ T cells were isolated from the peripheral blood mononuclear cells (PBMC) of healthy donors using a CD4^+ T cell isolation kit II, following the manufacturer's instructions (Miltenyi Biotec). Cells were resuspended in a medium of RPMI-1640 supplemented with 10% fetal bovine serum, penicillin, streptomycin, glutamate, and β-mercaptoethanol and were added to 96-well plates at 1.5×10^5 per 100 μL per well. 50 μL of compound at titrated concentrations in DMSO were added into each well at final DMSO concentration at 0.2%. Cells were incubated for 1 hour, then 50 μL of Th17 cell differentiation medium was added to each well. The final concentrations of antibodies and cytokines (R&D Systems) in differentiation medium were: 3×10^6/mL anti-CD3/CD28 beads (prepared using human T cell activation/expansion kit, Miltenyi Biotec), 10 μg/mL anti-IL4, 10 μg/mL anti-IFNγ, 10 ng/mL IL1β, 10 ng/mL IL23, 50 ng/mL IL6, 3 ng/mL TGFβ and 20 U/mL IL2. Cells were cultured at 37° C. and 5% CO2 for 3 days. Supernatants were collected and the accumulated IL-17 in culture was measured by using MULTI-SPOT® Cytokine Plate following manufacture's instruction (Meso Scale Discovery). The plate was read using Sector Imager 6000, and IL-17 concentration was extrapolated from the standard curve. The IC50s were determined by GraphPad.

Usually IC50 stands for the concentration needed to halve the response being measured. A low value points to inhibition by little substance. As for `C#CC(O)(c1ccc2nc(OC)c(Cc3ccc(C(F)(F)F)cc3)c(Cl)c2c1)c1cnc(C)n1C` (single isomer, unassigned) [Example 14c, 1-(4-Chloro-2-methoxy-3-(4-(trifluoromethyl)benzyl)quinolin-6-yl)-1-(1,2-dimethyl-1H-imidazol-5-yl)prop-2-yn-1-ol], the IC50 against human RORγt LBD came to 310 nM; in experiment [1] it was 290 nM. In addition, on human RORγt LBD, the “RORγt reporter Assay, % inhibition @ 6 μM” value stood at 94%.

As a reminder, the inhibition is the change of the read-out against control, counted positive when it falls. Regarding `COc1nc2ccc(C(C)(O)c3ccc(C)nc3C)cc2c(Cl)c1Cc1ccc(C(F)(F)F)cc1` (single isomer, unassigned) [Example 13b, 1-(4-Chloro-2-methoxy-3-(4-(trifluoromethyl)benzyl)quinolin-6-yl)-1-(2,6-dimethylpyridin-3-yl)ethanol], on human RORγt LBD, the IC50 was 200 nM and the inhibition at 6 µM came out at 101%. In addition, the IC50 in experiment [1] amounted to 170 nM.

On to `C#CC(O)(c1ccc2nc(OC)c(Cc3ccc(C(F)(F)F)cc3)c(Cl)c2c1)C1CN(C(C)=O)C1` (single isomer, unassigned) [Example 7c, 1-(3-(1-(4-chloro-2-methoxy-3-(4-(trifluoromethyl)benzyl)quinolin-6-yl)-1-hydroxyprop-2-yn-1-yl)azetidin-1-yl)ethanone], for which the IC50 turned out to be 98 nM against human RORγt LBD and 320 nM in experiment [1] (Homo sapiens, CD4+ T, 72 h). Further, at human RORγt LBD, the “RORγt reporter Assay, % inhibition @ 6 μM” value was found to be 94%.

With `C#CC(O)(c1ccc2nc(OC)c(Cc3ccc(C(F)(F)F)cc3)c(Cl)c2c1)c1cnc(C)n1C` (single isomer, unassigned) [Example 14b, 1-(4-Chloro-2-methoxy-3-(4-(trifluoromethyl)benzyl)quinolin-6-yl)-1-(1,2-dimethyl-1H-imidazol-5-yl)prop-2-yn-1-ol], at human RORγt LBD, the IC50 was found to be 66 nM and the inhibition at 6 µM was determined as 84%. Moreover, the IC50 in experiment [1] (Homo sapiens, CD4+ T, 72 h) was found to be 190 nM.

In the case of `COc1nc2ccc(C(C)(O)c3oc(C)nc3C)cc2c(Cl)c1Cc1ccc(C(F)(F)F)cc1` (single isomer, unassigned) [Example 10c, 1-(4-Chloro-2-methoxy-3-(4-(trifluoromethyl)benzyl)quinolin-6-yl)-1-(2,4-dimethyloxazol-5-yl)ethanol], the IC50 against human RORγt LBD was determined as 330 nM; in experiment [1] (Homo sapiens, CD4+ T, 72 h), 550 nM. Moreover, the inhibition at 6 µM on human RORγt LBD was 95%.

Regarding `COc1nc2ccc(C(C)(O)c3ccc(C)nc3C)cc2c(Cl)c1Cc1ccc(C(F)(F)F)cc1` (single isomer, unassigned) [Example 13c, 1-(4-Chloro-2-methoxy-3-(4-(trifluoromethyl)benzyl)quinolin-6-yl)-1-(2,6-dimethylpyridin-3-yl)ethanol], at human RORγt LBD, the 50% inhibitory concentration (IC50) was 46 nM and the “RORγt reporter Assay, % inhibition @ 6 μM” value was determined as 100%. The IC50 in experiment [1] was found to be 60 nM.

As for `COc1nc2ccc(C(C)(O)c3oc(C)nc3C)cc2c(Cl)c1Cc1ccc(C(F)(F)F)cc1` (single isomer, unassigned) [Example 10b, 1-(4-Chloro-2-methoxy-3-(4-(trifluoromethyl)benzyl)quinolin-6-yl)-1-(2,4-dimethyloxazol-5-yl)ethanol], the IC50 is 260 nM on human RORγt LBD and 640 nM in experiment [1] (Homo sapiens, CD4+ T, 72 h). Besides, the “RORγt reporter Assay, % inhibition @ 6 μM” value on human RORγt LBD is listed as 96%.

With `COc1nc2ccc(C(C)(O)c3cnc(C)n3C)cc2c(Cl)c1Cc1ccc(C(F)(F)F)cc1` (single isomer, unassigned) [Example 12c, 1-(4-Chloro-2-methoxy-3-(4-(trifluoromethyl)benzyl)quinolin-6-yl)-1-(1,2-dimethyl-1H-imidazol-5-yl)ethanol], the IC50 worked out at 41 nM against human RORγt LBD and 80 nM in experiment [1]. Also, the “RORγt reporter Assay, % inhibition @ 6 μM” value on human RORγt LBD stood at 102%.

For the compound `COc1nc2ccc(C(C)(O)c3cncn3C)cc2c(Cl)c1Cc1ccc(C(F)(F)F)cc1` (single isomer, unassigned) [Example 9c, 1-(4-Chloro-2-methoxy-3-(4-(trifluoromethyl)benzyl)quinolin-6-yl)-1-(1-methyl-1H-imidazol-5-yl)ethanol], on human RORγt LBD, half-maximal inhibition (IC50) required 180 nM and the “RORγt reporter Assay, % inhibition @ 6 μM” value is 98%. The compound further gave an IC50 in experiment [1] (Homo sapiens, CD4+ T, 72 h) of 280 nM.

`COc1nc2ccc(C(C)(O)c3cnc(C)n3C)cc2c(Cl)c1Cc1ccc(C(F)(F)F)cc1` (single isomer, unassigned) [Example 12b, 1-(4-Chloro-2-methoxy-3-(4-(trifluoromethyl)benzyl)quinolin-6-yl)-1-(1,2-dimethyl-1H-imidazol-5-yl)ethanol]: the IC50 stood at 500 nM at human RORγt LBD and 2100 nM in experiment [1]. The inhibition at 6 µM at human RORγt LBD was found to be 102%.
